# Source: patent US10941379B2, “Microbial system for biosynthesis of natural and engineered products coupled to in situ extraction in supercritical CO2” (Massachusetts Institute of Technology, priority 2016, dated 2021)
# Assays:
# Assay type in all cases: cell-based, Bacillus megaterium
# [1] = tested on: B. megaterium SR7; assay: SR7 antibiotic sensitivity in LB (OD600 vs unamended control); conditions: for % Control: (OD600 AB/OD600 Control)*100 in LB, average n = 2, 24 hours, 37° C.; for Sensitivity: LB
# Experimental: To help guide optimization of growth conditions for strain SR7, physiological tests were conducted under aerobic conditions. To determine tolerance for pH, salinity and bicarbonate, high throughput culturing was done in 96 well plates and scored for growth by OD600 using a microplate reader (BioTek Synergy 2; BioTek; Winooski, Vt.). 200 uL LB solutions/well were inoculated in triplicate with 10^4 spores/ml (based on SR7 spore stock filter counts) and incubated on a plate rocker at 37° C. with unamended positive and cell-free negative LB controls. Tests for pH tolerance (pH 2-10) were conducted in LB medium amended with HCl or NaOH. The effect of salinity and bicarbonate on growth was determined by adding NaCl (1-10%) and NaHCO3 (0.1-0.5M), respectively, to LB media. Optimal SR7 growth temperature was tested by inoculating 10^4 spores/ml in 5 ml of LB in triplicate at temperatures of 9-55° C. Cultures and cell-free negative controls were incubated without shaking, with subsamples taken for periodic OD600 measurements. SR7 antibiotic sensitivity was determined by supplementing 5 ml LB with ampicillin (5-50 μg/ml), chloramphenicol (3.5-35 μg/ml), kanamycin (5-50 μg/ml), spectinomycin (10-100 μg/ml), streptomycin (10-100 μg/ml), or tetracycline (1.5-15 μg/ml).
# [2] = tested on: B. megaterium SR7; assay: Biolog GenIII Microplate growth sensitivity assay; conditions: for % Control: (OD490 AB/OD490 Control)*100 for Biolog, average n = 2, Biolog does not publish concentrations; for Sensitivity: Biolog, concentration not published; for SR7 growth inhibition in Biolog assays: result in words; on sensitivity: key: S = sensitive; R = resistant
# Experimental: (§1) Plates were incubated at 37° C. on a plate shaker at 200 rpm and assayed for growth using NADH-dependent colorimetric changes measured by OD490 on a microplate reader (BioTek Synergy 2; BioTek; Winooski, Vt.).
# [3] = tested on: B. megaterium SR7; assay: Biolog GenIII sole carbon source growth; conditions: Table 11; for Growth in carbon source Biolog plate, +Metals: trace metals-amended plate; for Growth in carbon source Biolog plate, I: unamended plate trial I; for Growth in carbon source Biolog plate, II: unamended plate trial II
# Experimental: as §1
Compound,"Growth in carbon source Biolog plate, +Metals [3]","Growth in carbon source Biolog plate, I [3]","Growth in carbon source Biolog plate, II [3]",other results
CC1(C)S[C@@H]2[C@H](NC(=O)[C@H](N)c3ccccc3)C(=O)N2[C@H]1C(=O)O [Ampicilin],,,,% Control ([1]; 50 ug/mL): 8%; Sensitivity ([1]; 50 ug/mL): S
C[C@H]1[C@H](NC(=O)/C(=N\OC(C)(C)C(=O)O)c2csc(N)n2)C(=O)N1S(=O)(=O)O [Aztreonam],,,,% Control [2]: 10%; Sensitivity [2]: S
O=C(N[C@H](CO)[C@H](O)c1ccc([N+](=O)[O-])cc1)C(Cl)Cl [Chloramphenicol],,,,% Control ([1]; 35 ug/mL): 9%; Sensitivity ([1]; 35 ug/mL): S
"N[C@H](CO)C(=O)O [D-Serine, reference compound]",−,−,−,% Control [2]: 10%; Sensitivity [2]: S; SR7 growth inhibition in Biolog assays [2]: inhibited
CC(=O)O[C@H]1C[C@@]2(C)[C@@H](C[C@@H](O)[C@H]3[C@@]4(C)CC[C@@H](O)[C@@H](C)[C@@H]4CC[C@@]32C)/C1=C(\CCC=C(C)C)C(=O)O [Fusidic Acid],,,,% Control [2]: 9%; Sensitivity [2]: S
NC[C@H]1O[C@H](O[C@H]2[C@H](O)[C@@H](O[C@H]3O[C@H](CO)[C@@H](O)[C@H](N)[C@H]3O)[C@H](N)C[C@@H]2N)[C@H](O)[C@@H](O)[C@@H]1O [Kanamycin],,,,% Control ([1]; 5 ug/mL): 9%; Sensitivity ([1]; 5 ug/mL): S
C[C@H](O)[C@H](O)[C@@H](O)[C@@H](O)C=O [L-Rhamnose],−,−,−,
N[C@@H](CO)C(=O)O [L-Serine],−,+,+,
CCC[C@@H]1C[C@@H](C(=O)N[C@@H]([C@H]2O[C@H](SC)[C@H](O)[C@@H](O)[C@H]2O)[C@@H](C)O)N(C)C1 [Lincomycin],,,,% Control [2]: 11%; Sensitivity [2]: S
COC(=O)C(C)=O [Methyl Pyruvate],+,+,+,
CN(C)c1ccc(O)c2c1C[C@H]1C[C@H]3[C@H](N(C)C)C(O)=C(C(N)=O)C(=O)[C@@]3(O)C(O)=C1C2=O [Minocycline],,,,Sensitivity [2]: S
O=C(O)[C@@H](O)[C@H](O)[C@H](O)[C@@H](O)C(=O)O [Mucic Acid],−,−,+,
CC(=O)N[C@H]1[C@H]([C@H](O)[C@H](O)CO)OC(O)(C(=O)O)C[C@@H]1O (stereo partly drawn) [N-Acetyl Neuraminic Acid],−,−,−,
CC(=O)N[C@H]1C(O)O[C@H](CO)[C@H](O)[C@@H]1O (stereo partly drawn) [N-Acetyl-D-Galactosamine],−,+,−,
CC(=O)N[C@H]1[C@@H](O)[C@H](O)[C@@H](CO)O[C@H]1O [N-Acetyl-β-D-Mannosamine],−,−,−,
CCn1cc(C(=O)O)c(=O)c2ccc(C)nc21 [Nalidixic Acid],,,,% Control [2]: 14%; Sensitivity [2]: S
CCCCC(CC)CCC(CC(C)C)OS(=O)(=O)[O-].[Na+] (stereo not drawn) [Niaproof 4],,,,% Control [2]: 9%; Sensitivity [2]: S; SR7 growth inhibition in Biolog assays [2]: inhibited

Compound,"Growth in carbon source Biolog plate, +Metals [3]","Growth in carbon source Biolog plate, I [3]","Growth in carbon source Biolog plate, II [3]",other results
CCC(=O)O [Propionic Acid],−,−,+,
O=C(O)[C@]1(O)C[C@@H](O)[C@@H](O)[C@H](O)C1 [Quinic Acid],−,−,+,
CO[C@H]1/C=C/O[C@@]2(C)Oc3c(C)c([O-])c4c(O)c(cc(O)c4c3C2=O)NC(=O)/C(C)=C\C=C\[C@H](C)[C@H](O)[C@@H](C)[C@@H](O)[C@@H](C)[C@H](OC(C)=O)[C@@H]1C.[Na+] [Rifamycin SV],,,,% Control [2]: 11%; Sensitivity [2]: S
OC[C@H]1O[C@H](OC[C@H]2O[C@H](OC[C@H]3O[C@H](O[C@]4(CO)O[C@H](CO)[C@@H](O)[C@@H]4O)[C@H](O)[C@@H](O)[C@@H]3O)[C@H](O)[C@@H](O)[C@H]2O)[C@H](O)[C@@H](O)[C@H]1O [Stachyose],+,+,+,
CO[C@H]1C[C@H](O[C@H]2[C@H](C)[C@@H](O[C@@H]3O[C@H](C)C[C@H](N(C)C)[C@H]3OC(C)=O)[C@@H](C)C[C@@]3(CO3)C(=O)[C@H](C)[C@@H](OC(C)=O)[C@@H](C)[C@@H](C)OC(=O)[C@@H]2C)O[C@@H](C)[C@@H]1OC(C)=O [Troleandomycin],,,,% Control [2]: 9%; Sensitivity [2]: S
CN[C@H](CC(C)C)C(=O)N[C@H]1C(=O)N[C@@H](CC(N)=O)C(=O)N[C@H]2C(=O)N[C@H]3C(=O)N[C@H](C(=O)N[C@H](C(=O)O)c4cc(O)cc(O)c4-c4cc3ccc4O)[C@H](O)c3ccc(c(Cl)c3)Oc3cc2cc(c3O[C@@H]2O[C@H](CO)[C@@H](O)[C@H](O)[C@H]2O[C@H]2C[C@](C)(N)[C@H](O)[C@H](C)O2)Oc2ccc(cc2Cl)[C@H]1O [Vancomycin],,,,% Control [2]: 10%; Sensitivity [2]: S
O[C@H]1[C@H](O)[C@@H](O)[C@H](O)[C@@H](O)[C@H]1O [myo-Inositol],+++,−,+,
O=C(O)Cc1ccc(O)cc1 [p-Hydroxy-Phenylacetic Acid],−,−,−,
NCCCC(=O)O [Υ-Amino-Butryric Acid],+++,−,+,
OC[C@H]1O[C@@H](O[C@H]2[C@H](O)[C@@H](O)[C@@H](O)O[C@@H]2CO)[C@H](O)[C@@H](O)[C@H]1O [α-D-Lactose],+,+,+,
CCC(O)C(=O)O (stereo not drawn) [α-Hydroxy-Butyric Acid],−,−,−,
CCC(=O)C(=O)O [α-Keto-Butyric Acid],−,−,−,
CO[C@@H]1O[C@H](CO)[C@@H](O)[C@H](O)[C@H]1O [β-Methyl-D-Glucoside],+,−,+,
D-Salicin,+,+,+,
D-Turanose,+++,+,+,
Gentiobiose,+,+,+,
Tween 40,−,−,+,
